Source: paper PMC9109600 (ACS chemical biology, 2021)

Target: T1, Guanine deaminase (GDA) (Homo sapiens, UniProt Q9Y2T3)
T1 sequence (Q9Y2T3 1-454): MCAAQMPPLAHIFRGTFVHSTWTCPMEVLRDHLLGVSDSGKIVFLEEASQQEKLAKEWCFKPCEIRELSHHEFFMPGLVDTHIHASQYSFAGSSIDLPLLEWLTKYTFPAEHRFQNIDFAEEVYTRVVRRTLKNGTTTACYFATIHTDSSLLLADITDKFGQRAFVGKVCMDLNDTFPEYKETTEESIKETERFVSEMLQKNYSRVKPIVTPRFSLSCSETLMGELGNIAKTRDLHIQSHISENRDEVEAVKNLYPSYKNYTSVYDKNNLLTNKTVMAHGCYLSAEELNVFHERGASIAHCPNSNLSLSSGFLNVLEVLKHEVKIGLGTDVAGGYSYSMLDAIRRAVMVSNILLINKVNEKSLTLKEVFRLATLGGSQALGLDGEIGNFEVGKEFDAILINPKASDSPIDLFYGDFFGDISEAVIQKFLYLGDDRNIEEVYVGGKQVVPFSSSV
Assay: real-time fluorescence inhibition assay with tzGN as substrate
Type: biochemical

IC50 [µM] | Structure (SMILES)
100 | NC(=O)c1[nH]cnc1N [AICA, 5-aminoimidazole-4-carboxamide]
80 | NC(=O)c1nscc1N [ATCA, 4-aminoisothiazole-3-carboxamide]

Structure (SMILES) | IC50 [µM]
O=C(O)c1c[nH]cn1 [ICA, 4-imidazolecarboxylic acid] | 2000
